Assay results published in US20260085069A1, “PRODRUGS” (Cambridge Enterprise Limited, priority 2022, published 2026).
In brackets after ≈: the same amount, converted by molar mass.

What was measured:
[1] = Stability in aqueous media (FaSSIF, SGF, PBS); assay type: physicochemical; conditions: for FaSSIF (pH 6.5) % remaining 1 h / FaSSIF (pH 6.5) % remaining 6 h / FaSSIF (pH 6.5) % remaining 24 h: FaSSIF pH 6.5, 37° C.; for PBS (pH 7.4) % remaining 1 h / PBS (pH 7.4) % remaining 6 h / PBS (pH 7.4) % remaining 24 h: PBS pH 7.4, 37° C.; for SGF (pH 1.2) % remaining 1 h / SGF (pH 1.2) % remaining 6 h / SGF (pH 1.2) % remaining 24 h: SGF pH 1.2, 37° C.
Description: 10 μL of a 10 mM stock solution of the Examples were dissolved in 490 μL DMSO to afford […] working solution SGF (pH 1.2):
Dissolve 0.04 g NaCl and 0.064 g pepsin in 0.14 mL HCl and add sufficient water to 20 mL volume. The pH of the test solution was 1.20±0.05.
0.056% (w/v) lecithin, 0.161% (w/v) sodium taurocholate, 0.39% (w/v) monobasic potassium phosphate, 0.77% (w/v) potassium chloride, deionized H2O. The pH of the test solution was 6.5±0.05.
30 mL of 10×PBS (pH7.4) was added into a 50 mL flask and diluted with water. The solution was mixed well and adjusted to pH 7.4 with 1 N HCl.
2 μL of the 200 μL working solution of the Examples was added into 96-deep-well plates for TO, T60, T120, T360 and T1440 timepoints. Duplicates were prepared.
Stability studies were commenced by the addition of 198 μL of the required media (e.g. Simulated Gastric Fluid pH 1.2 [SGF], Simulated Fasted State Intestinal Fluid pH 6.5 [FaSSIF]) and Phosphate Buffered Saline pH 7.4 [PBS]) to each well except TO. The samples were incubated at 37° C. at 600 rpm for the appointed time. The samples at the corresponding timepoint were removed and immediately mixed with 400 μL of cold acetonitrile containing 200 ng/mL tolbutamide and labetalol (internal standard). The samples were centrifuged at 4000 rpm at 4° C. for 20 minutes. 60 μL of the supernatant was removed and mixed with 180 μL purified water and thoroughly mixed and analysed by LCMS (Shimadzu LC 30-AD, ACQUITY UPLC BEH Phenyl 1.7 um 2.1*50 mm Part No. 186002884, with mobile phase A: 0.1% formic acid in water, mobile phase B: 0.1% formic acid in acetonitrile). Formation of parent was also monitored as a metabolite.
Samples were analysed by Mass Spectrometry QTRAP 6500+.

[2] = Solubility in simulated fluids (kinetic solubility, 24 hours); assay type: physicochemical; conditions: thermodynamic from solid, 24 hour timepoint, room temperature
Description: A known quantity of the Examples and control compounds were weighed into a suitable vessel (whatman miniuniprep vials) and a known volume of the required media was added (e.g. Simulated Gastric Fluid pH 1.2 [SGF], Simulated Fasted State Intestinal Fluid pH 6.5 [FaSSIF] or Phosphate Buffered Saline pH 7.4 [PBS]). The samples were subjected to vortex mixing for 2 minutes followed by agitation on a shaker for 24 hours at room temperature at 800 rpm.

[3] = in vitro; assay type: in vitro ADME; conditions: rat intestinal microsomes, NADPH, 37° C.
Description: 5 μL of a 10 mM stock solution of the Examples were dissolved in 495 μL acetonitrile to afford 500 μL working solution.
The appropriate amount of β-Nicotinamide adenine dinucleotide phosphate reduced form, tetrasodium salt; NADPH-4Na (NADPH) powder was weighed and diluted into a 10 mM MgCl2 solution (working solution concentration: 10 unit/mL; final concentration in reaction system: 1 unit/mL).
The appropriate concentrations of rat intestinal microsome (Xenotech, cat. No R1000.1) working solutions were prepared in 100 mM potassium phosphate buffer.
Cold (4° C.) acetonitrile (ACN) containing 200 ng/mL tolbutamide and 200 ng/mL labetalol as internal standards (IS).
Incubation plates were pre-incubated for 10 minutes at 37° C. with constant shaking. 54 μL was transferred from Incubation plates into a blank plate and then 6 μL NADPH cofactor and 180 μL quenching solution was added to the Incubation plates. 5 μL Example working solution (100 μM) was also added to the Incubation plates and mixed thoroughly.
The T60 Incubation plate was mixed thoroughly and for the 0-min timepoint, 54 μL was transferred into a Quenching plate (containing 180 μL quenching solution and 6 μL NADPH cofactor). 44 μL NADPH cofactor was then added to the T60 Incubation plate and incubated at 37° C. for 60 min while shaking. At 5, 15, 30, 45, and 60 min, 60 μL samples were transferred from T60 Incubation plate into a Quenching plate (containing 180 μl quenching solution). For the NCF60 Incubation plate, 50 μL of buffer was added and mixed thoroughly before incubation at 37° C. for 60 min while shaking, at the 60-min time point 60 μL was transferred to the Quenching plate (containing 180 μl quenching solution). All sampling plates were shaken for 10 min, then centrifuged at 4000 rpm for 20 minutes at 4° C. 80 μL supernatant was transferred into 240 μL HPLC water, and mixed for 10 min.

[4] = assay type: in vitro ADME; conditions: rat plasma, 37° C.
Description: 5 μL of a 10 mM stock solution of the Examples were dissolved in 495 μL DMSO to afford 500 μL working solution Assay procedure:
98 μL plasma was added to each well of a 96-well reaction plate, using one plate per timepoint (Blank, TO, T10, T30, T60, and T120). 2 μL of working solution was added to each well of the reaction plates except Blank. Each plate was incubated at 37° C. for the indicated timepoint (0, 10, 30, 60, 120 minutes). At the end of incubation, 400 μL of stop solution (200 ng/mL tolbutamide and 200 ng/mL labetalol in 0.1% FA in ACN) was added to precipitate protein. The plates were then sealed and shaken for 20 minutes before centrifugation at 4000 rpm for 20 minutes. […] Formation of parent was also monitored as a metabolite.

[5] = simulated gastric fluid, SGF (pH 1.2)

SMILES | FaSSIF (pH 6.5) % remaining 1 h [1] [%] | FaSSIF (pH 6.5) % remaining 6 h [1] [%] | FaSSIF (pH 6.5) % remaining 24 h [1] [%] | PBS (pH 7.4) % remaining 1 h [1] [%] | PBS (pH 7.4) % remaining 6 h [1] [%] | PBS (pH 7.4) % remaining 24 h [1] [%] | SGF (pH 1.2) % remaining 1 h [1] [%] | SGF (pH 1.2) % remaining 6 h [1] [%] | SGF (pH 1.2) % remaining 24 h [1] [%] | solubility kinetic at 24 h [2, 5] [µg/mL] | solubility kinetic at 24 h ([2]; FaSSIF (pH 6.5)) [µg/mL] | CIint(mic) [3] [µL/min/mg] | half-life at 1 µM [3] [min] | % Example remaining 0 min [4] [%] | Example concentration (nM) 0 min [4] [nM] | % Example remaining 10 min [4] [%] | Example concentration (nM) 10 min [4] [nM]
CCOC(=O)c1ccc2c(c1)nc(OCCOCCCCNCc1cc(F)c(OC(F)(F)F)c(F)c1)c1ccncc12 [Example 8, ethyl 5-(2-(4-((3,5-difluoro-4-(trifluoromethoxy)benzyl)amino)butoxy)ethoxy)benzo[c][2,6]naphthyridine-8-carboxylate] | 98.5 | 102.6 | 100.4 | 63.2 | 25.3 | 7.6 | 108.2 | 63.8 | 23.3 | 17.8 (≈ 30 µM) | 82.8 (≈ 139 µM) | 37.6 | 61.4 | 100.0 | 1687.0 | 0.2 | 3.1
CC(C)(C)OC(=O)c1ccc2c(c1)nc(OCCOCCCCNCc1cc(F)c(OC(F)(F)F)c(F)c1)c1ccncc12 [Example 9, tert-butyl 5-(2-(4-((3,5-difluoro-4-(trifluoromethoxy)benzyl)amino)butoxy)ethoxy)benzo[c][2,6]naphthyridine-8-carboxylate] | 92.1 | 98.3 | 96.1 | 80.9 | 27.9 | 10.0 | 102.1 | 57.9 | 19.6 | 16.1 (≈ 25.9 µM) | 88.3 (≈ 142 µM) | 78.9 | 29.3 | – | – | – | –
CCC(=O)OCOC(=O)c1ccc2c(c1)nc(OCCOCCCCNCc1cc(F)c(OC(F)(F)F)c(F)c1)c1ccncc12 [Example 12, (propionyloxy)methyl 5-(2-(4-((3,5-difluoro-4-(trifluoromethoxy)benzyl)amino)butoxy)ethoxy)benzo[c][2,6]naphthyridine-8-carboxylate] | 94.9 | 96.5 | 99.8 | 76.4 | 6.3 | 1.1 | 101.3 | 49.5 | 10.1 | 7.4 (≈ 11.4 µM) | 97.5 (≈ 150 µM) | 90.8 | 25.4 | – | – | – | –
CC(C)OC(=O)OCOC(=O)c1ccc2c(c1)nc(OCCOCCCCNCc1cc(F)c(OC(F)(F)F)c(F)c1)c1ccncc12 [Example 14, ((isopropoxycarbonyl)oxy)methyl 5-(2-(4-((3,5-difluoro-4-(trifluoromethoxy)benzyl)amino)butoxy)ethoxy)benzo[c][2,6]naphthyridine-8-carboxylate] | 98.2 | 93.6 | 102.8 | 91.7 | 34.3 | 4.4 | 105.1 | 63.8 | 23.2 | 15 (≈ 22 µM) | 100 (≈ 147 µM) | 1604.8 | 1.4 | – | – | – | –
O=C(OCOC(=O)c1ccc2c(c1)nc(OCCOCCCCNCc1cc(F)c(OC(F)(F)F)c(F)c1)c1ccncc12)OC1CCOCC1 [Example 16, ((((tetrahydro-2H-pyran-4-yl)oxy)carbonyl)oxy)methyl 5-(2-(4-((3,5-difluoro-4-(trifluoromethoxy)benzyl)amino)butoxy)ethoxy)benzo[c][2,6]naphthyridine-8-carboxylate] | 95.5 | 104.4 | 95.7 | 93.8 | 37.9 | 7.1 | 95.4 | 63.0 | 19.4 | 39.4 (≈ 54.4 µM) | 99.4 (≈ 137 µM) | – | – | 100.0 | 1845.9 | 0.1 | 2.7
